Assay results taken from US6800651B2 (Eli Lilly and Company, priority 2000, dated 2004).
Read-outs that look alike come from different tables or passages of the source. Marks after values point to notes of the source that are not given here.

Key:
[1] = test system: Harlan Sprague-Dawley rats; test: Animal model of dural protein extravasation (trigeminal ganglion stimulation); format: in vivo; settings: rat, ratio stimulated/unstimulated side of dura
Protocol: Harlan Sprague-Dawley rats (250-350 g) were anesthetized with sodium pentobarbital intraperitoneally (65 mg/kg) and placed in a stereotaxic frame (David Kopf Instruments) with the incisor bar set at −3.5 mm. Following a midline sagital scalp incision, two pairs of bilateral holes were drilled through the skull (6 mm posterially, 2.0 and 4.0 mm laterally, all coordinates referenced to bregma). Pairs of stainless steel stimulating electrodes, insulated except at the tips (Rhodes Medical Systems, Inc.), were lowered through the holes in both hemispheres to a depth of 9 mm. The femoral vein was exposed and a dose of the test compound was injected intravenously (i.v.) at a dosing volume of 1 ml/kg or, in the alternative, test compound was administered orally (p.o.) via gavage at a volume of 2 ml/kg. Approximately 8 minutes post i.v. injection, a 50 mg/kg dose of Evans Blue, a fluorescent dye, was also injected intravenously. The Evans Blue complexed with proteins in the blood and functioned as a marker for protein extravasation. […] Fifteen minutes following stimulation, the animals were killed and exsanguinated with 40 mL of saline. The top of the skull was removed to facilitate the collection of the dural membranes. The membrane samples were removed from both hemispheres, rinsed with water, and spread flat on microscopic slides. […] A fluorescence microscope (Zeiss) equipped with a grating monochromator and a spectrophotometer was used to quantify the amount of Evans Blue dye in each sample. An excitation wavelength of approximately 535 nm was utilized and the emission intensity at 600 nm was determined. The microscope was equipped with a motorized stage and also interfaced with a personal computer. This facilitated the computer-controlled movement of the stage with fluorescence measurements at 25 points ([…]) on each dural sample. The mean and standard deviation of the measurements were determined by the computer. The extravasation induced by the electrical stimulation of the trigeminal ganglion was an ipsilateral effect (i.e. occurs only on the side of the dura in which the trigeminal ganglion was stimulated). This allows the other (unstimulated) half of the dura to be used as a control. The ratio of the amount of extravasation in the dura from the stimulated side, over the amount of extravasation in the unstimulated side, was calculated.

[2] = test system: Male Sprague-Dawley rats; test: Fear potentiated startle paradigm; format: in vivo; settings: rat
Protocol: Male Sprague-Dawley rats weighing 325-400 g were purchased from Harlan Sprague-Dawley, Inc. (Cumberland, Ind.) and given a one week acclimation period before testing. Rats were individually housed with food and water ad libitum in an animal room on a 12-hour light/dark cycle with lights on between 6:00 A.M. and 6:00 P.M. […] Control rats were given the respective vehicle. The fear potentiated startle paradigm is conducted over three consecutive days. All three days begin with a 5-minute adaptation period before the trial starts. On day one (baseline startle) after the adaptation period, the animal receives 30 trials of 120 dB auditory noise. The mean startle amplitude (Vmax) is used to assign animals to groups with similar means before conditioning begins. Day two consists of conditioning the animals. Each animal receives 0.5 mA of shock for 500 msec preceded by a 5 second presentation of light which remains on for the duration of the shock. Ten presentations of the light and shock are administered. Day three is the testing trial where drug administration occurs prior to testing. Twenty-four hours after conditioning, startle testing sessions are conducted. Ten trials of acoustic startle (120 dB), non-light paired, are presented at the beginning of the session. This is followed by 20 random trials of the noise alone and 20 random trials of noise preceded by light. […] Data is presented as the difference between light+noise and noise-alone. Differences in startle response amplitudes were analyzed by JMP statistical software using a One-way Anova (analysis of variance, t-test). Group differences were considered to be significant at p<0.05. In the experiment shown below the compound of Example 16 was given i.p. 30 minutes prior to testing.

[3] = target: T1, mGlu2 receptor (Homo sapiens, UniProt Q14416); test: Potentiation of glutamate-induced increase in intracellular calcium with a mGluR2 expressing cell line (FLIPR); format: cell-based; parameters: expressed in transfected cells; host or cells: RGT cells (co-transfected with GLAST), stably transfected with Galpha15; settings: read-out: % Maximal Response (mean ± SD, n=2)
Protocol: Potentiation of Glutamate-Induced Increase in Intracellular Calcium with a mGluR2 Expressing Cell Line.
Cell lines expressing human mGlu2 receptors were derived as previously described (Desai, Burnett, Mayne, Schoepp, Mol. Pharmacol. 48, 648-657, 1995) and cultured in DMEM with 5% dialyzed fetal bovine serum, 1 mM glutamine, 1 mM sodium pyruvate, 50 μg/ml Geneticin G418, and 0.2 mg/ml hygromycin B. Confluent cultures were passaged weekly. […] The RGT cell line expressing the mGluR2 receptors was stably transfected with the promiscuous G-protein, Galpha15 to change the signaling pathway to the mGlu2 receptor to one that could be easily measured through release of intracellular calcium. Thus, intracellular calcium levels were monitored before and after the addition of drugs on a Fluorometric Imaging Plate Reader (i.e. FLIPR, Molecular Devices). The following buffer was used throughout as an assay buffer: 10 mM KCl, 138 mM NaCl, 5 mM Ca Cl2, 1 mM MgCl2, 4 mM NaH2PO4, 10 mM Glucose, 10 mM HEPES, pH 7.4. Cells that had been plated 48 h prior at a density of 30-40,000 cells per well in a 96-well plate were loaded with a calcium-sensitive dye for 90 min at 25° C. Fluo-3 (2 mM in DMSO, Molecular Probes) were mixed with a equal volume of 10% pluronic acid in DMSO, and diluted to 8 μM into the buffer described above containing 10% fetal bovine serum to make the loading buffer. Following loading of the cells, the loading buffer was removed and replaced with assay buffer prior to drug addition and monitoring on the FLIPR.

[4] = target: T1, mGlu2 receptor; test: [3H]-2S-2-Amino-2-(1S,2S-2-carboxycyclopropan-1-yl)-3-(xanth-9-yl) propionic acid receptor binding (displacement), membranes of mGlu2 receptor expressing RGT cells; parameters: expressed in transfected cells; host or cells: RGT cells (co-transfected with the rat glutamate/aspartate transporter GLAST); washed membranes; settings: displacement of 1 nM [3H]-2S-2-amino-2-(1S,2S-2-carboxycyclopropan-1-yl)-3-(xanth-9-yl)propionic acid; homogenates of mGlu2 receptor expressing cell line
Protocol: Membranes from mGlu2 receptor expressing RGT cells were prepared by harvesting adherent cells from confluent T-150 flasks with a cell scraper. Cells and media were then placed in 50 ml conical tubes and centrifuged at 4° C. at 1000 g for 5 minutes. The supernatant was removed and the pellet was frozen at −10° C. until use. Washed cell membranes were prepared by adding 20 ml of 10 mM potassium phosphate buffer pH 7.6 @ 5° C.+100 mM potassium bromide and homogenizing with an Ultra-Turrax tissuemizer for 15 seconds at 90% output. The homogenate was centrifuged at 48,000×g for 10 minutes at 5° C. This last step was repeated two times, and the final pellet was resuspended in 10 ml of the same buffer and reserved on ice until initiating the binding assay.
The incubation was initiated by the addition of the membrane suspension, (about 15 μg membrane protein), and allowed to continue on ice for 30 min. Incubation was terminated by rapid filtration with a Brandel cell harvester through glass fiber Whatman GF/B filters pre-wet with the same potassium phosphate buffer assay buffer (at 4° C.). The filters were washed five times with 1 ml of buffer. Filter sections were transferred to minivials and 5 ml of Fisher Scientific ScintiSafe liquid scintillation cocktail was added to each vial. Vials were allowed to set for several hours prior to counting on a Beckman LS6000 liquid scintillation counter.

T1 sequence (Q14416 19-872): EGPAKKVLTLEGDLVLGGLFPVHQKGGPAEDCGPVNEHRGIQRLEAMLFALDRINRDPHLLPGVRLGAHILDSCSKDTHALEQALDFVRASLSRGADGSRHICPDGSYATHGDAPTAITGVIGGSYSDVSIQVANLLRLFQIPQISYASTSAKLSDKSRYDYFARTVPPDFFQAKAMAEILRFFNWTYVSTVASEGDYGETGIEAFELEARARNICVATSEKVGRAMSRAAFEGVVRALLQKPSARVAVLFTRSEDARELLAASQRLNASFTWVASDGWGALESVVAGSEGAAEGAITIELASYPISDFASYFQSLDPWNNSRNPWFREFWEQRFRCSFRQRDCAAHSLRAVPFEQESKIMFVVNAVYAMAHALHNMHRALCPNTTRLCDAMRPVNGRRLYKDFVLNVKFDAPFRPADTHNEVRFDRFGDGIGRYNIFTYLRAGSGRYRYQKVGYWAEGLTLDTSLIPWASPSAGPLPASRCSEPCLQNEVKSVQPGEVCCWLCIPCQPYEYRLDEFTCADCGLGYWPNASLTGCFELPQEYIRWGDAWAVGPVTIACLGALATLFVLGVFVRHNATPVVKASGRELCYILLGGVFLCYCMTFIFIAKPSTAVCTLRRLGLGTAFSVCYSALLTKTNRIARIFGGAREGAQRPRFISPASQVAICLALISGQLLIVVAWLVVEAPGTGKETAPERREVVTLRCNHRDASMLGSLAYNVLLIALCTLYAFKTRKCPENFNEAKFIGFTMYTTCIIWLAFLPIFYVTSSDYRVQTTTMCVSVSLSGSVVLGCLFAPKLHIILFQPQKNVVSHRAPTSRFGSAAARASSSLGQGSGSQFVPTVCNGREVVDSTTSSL

- Emax ([3]; 8 nM Glutamate + 1 μM compound): 2.8 ± 1.9%
- Emax ([3]; 24 nM Glutamate + 1 μM compound): 0.1 ± 0.8%
- Emax ([3]; 80 nM Glutamate + 1 μM compound): 0.3 ± 1.1%
- Emax ([3]; 240 nM Glutamate + 1 μM compound): 17.4 ± 2.8%
- Emax ([3]; 800 nM Glutamate + 1 μM compound): 62.9 ± 0.1%
- Emax at 1 µM ([3]; 1 μM compound, Buffer (no agonist), glutamate series 24 μM to 8 nM): 1.6 ± 1%
- Emax ([3]; 2.4 μM Glutamate + 1 μM compound): 92.5 ± 4.4%
- Emax ([3]; 8 μM Glutamate + 1 μM compound): 98.4 ± 6.4%
- Emax ([3]; 24 μM Glutamate + 1 μM compound): 95.4 ± 2.4%
- Ki [4]: > 100 µM
SMILES: COc1ccccc1Oc1ccc(N(Cc2cccnc2)S(=O)(=O)CC(F)(F)F)cc1 [Example 16, N-(4-(2-Methoxyphenoxy)phenyl)-N-(2,2,2-trifluoroethylsulfonyl)pyrid-3-ylmethylamine]
- Extrav. Ratio ± s.e.m. ([1]; 10 pg/kg i.v.): 1.87 ± 0.07
- Extrav. Ratio ± s.e.m. ([1]; 100 pg/kg i.v.): 1.37 ± 0.07
- Extrav. Ratio ± s.e.m. ([1]; 1 ng/kg i.v.): 1.04 ± 0.05
- Extrav. Ratio ± s.e.m. ([1]; 100 ng/kg i.v.): 0.99 ± 0.004
- Difference in Startle Amplitude (Vmax) + S.E. ([2]; Exp. 1, 0.03 mg/kg i.p. 30 minutes prior to testing, light+noise minus noise-alone): 108 + 41
- Difference in Startle Amplitude (Vmax) + S.E. ([2]; Exp. 1, 0.3 mg/kg i.p. 30 minutes prior to testing): 154 + 38
- Difference in Startle Amplitude (Vmax) + S.E. ([2]; Exp. 1, 3.0 mg/kg i.p. 30 minutes prior to testing): 21 + 24*
- Difference in Startle Amplitude (Vmax) + S.E. ([2]; Exp. 2, 1.0 mg/kg i.p. 30 minutes prior to testing): 120 + 87*
- Difference in Startle Amplitude (Vmax) + S.E. ([2]; Exp. 2, 3.0 mg/kg i.p. 30 minutes prior to testing): 148 + 86*
- Difference in Startle Amplitude (Vmax) + S.E. ([2]; Exp. 2, 10.0 mg/kg i.p. 30 minutes prior to testing): 105 + 91*
